Experimental data reported in patent publication US4439426A, “Semisynthetic macrolidic antibiotics, intermediate compounds for their preparation and related pharmaceutical compositions containing them” (priority 1981, dated 1984).
Converted amounts (≈) assume the structure as drawn.

Legend:
[1] = test system: Clostridium perfrigens ATCC 3624 LRP 206; assay: microbe, parasite or virus in culture; format: cell-based; conditions: ATCC3624, solid medium, anaerobic, read-out: Minimum inhibiting concentration
Text: (§1) the bacteriostatic power, expressed as the minimum inhibiting concentration (MIC) against both aerobic and anaerobic, Gram positive and Gram negative, bacterial stocks: the related results are reported in the tables 2 and 3.

Salmonella typhy LRP 8 = assay: microbe, parasite or virus in culture; format: cell-based; conditions: LRP8, solid medium, read-out: Minimum inhibiting concentration
Text: as §1

Shigella sonnei LRP 5 = assay: Bacteriostatic power in solid medium (MIC); format: cell-based; conditions: LRP5, read-out: Minimum inhibiting concentration
Text: as §1

[2] = test system: Fusobacteriumnecrophroum ATCC 27852 LRP 210; assay: Bacteriostatic power in solid medium (MIC); format: cell-based; conditions: read-out: Minimum inhibiting concentration
Text: as §1

Bacillus subtilis LRP 25 = assay: Bacteriostatic power in solid medium (MIC); format: cell-based; conditions: Bacillus subtilis, LRP25, read-out: Minimum inhibiting concentration
Text: as §1

Escherichia coli LRP 50 = assay: Bacteriostatic power in solid medium (MIC); format: cell-based; conditions: Escherichia coli, LRP50, read-out: Minimum inhibiting concentration
Text: as §1

[3] = test system: Streptococcus pyogenes ATCC 8668 LRP 34; assay: Bacteriostatic power in solid medium (MIC); format: cell-based; conditions: Streptococcus pyogenes, ATCC8668, read-out: Minimum inhibiting concentration
Text: as §1

[4] = test system: Corynebacterium diphteriae LRP 24; assay: Bacteriostatic power in solid medium (MIC); format: cell-based; conditions: Corynebacterium, LRP24, read-out: Minimum inhibiting concentration
Text: as §1

[5] = test system: Micrococcus luteus ATCC 15957 LRP 193; assay: Bacteriostatic power in solid medium (MIC); format: cell-based; conditions: Micrococcus luteus, ATCC15957, read-out: Minimum inhibiting concentration
Text: as §1

[6] = test system: Streptococcus pneumoniae ATCC 6303 LRP 53; assay: Bacteriostatic power in solid medium (MIC); format: cell-based; conditions: Streptococcus pneumoniae, ATCC6303, read-out: Minimum inhibiting concentration
Text: as §1

[7] = test system: Haemophilus influenzae ATCC 19418 LRP 213; assay: Bacteriostatic power in solid medium (MIC); format: cell-based; conditions: Haemophilus influenzae, ATCC19418, read-out: Minimum inhibiting concentration
Text: as §1

[8] = test system: Staphylococcus aureus ATCC 14154 LRP 78; assay: Bacteriostatic power in solid medium (MIC); format: cell-based; conditions: Staphylococcus aureus, ATCC14154, read-out: Minimum inhibiting concentration
Text: as §1

[9] = test system: Streptococcus faecalis LRP 7; assay: Bacteriostatic power in solid medium (MIC); format: cell-based; conditions: Enterococcus faecalis, LRP7, read-out: Minimum inhibiting concentration
Text: as §1

[10] = test system: Micrococcus luteus ATCC 9341 LRP 6; assay: Bacteriostatic power in solid medium (MIC); format: cell-based; conditions: Micrococcus luteus, ATCC9341, read-out: Minimum inhibiting concentration
Text: as §1

[11] = test system: Bacteroides fragilis ATCC 23745 LRP 205; assay: Bacteriostatic power in solid medium (MIC); format: cell-based; conditions: Bacteroides fragilis, ATCC23745, read-out: Minimum inhibiting concentration
Text: as §1

[12] = test system: Klelsiella pneumoniae LRP 54; assay: Bacteriostatic power in solid medium (MIC); format: cell-based; conditions: read-out: Minimum inhibiting concentration
Text: as §1

[13] = test system: Acholeplasma laidlawii ATCC 23206 LRP 204; assay: Bacteriostatic power in solid medium (MIC); format: cell-based; conditions: Acholeplasma laidlawii, ATCC23206, read-out: Minimum inhibiting concentration
Text: as §1

[14] = test system: Pseudomonas aeruginosa LRP 9; assay: Bacteriostatic power in solid medium (MIC); format: cell-based; conditions: Pseudomonas aeruginosa, LRP9, read-out: Minimum inhibiting concentration
Text: as §1

[15] = test system: Staphylococcus aureus ATCC 6538P LRP 14; assay: Bacteriostatic power in solid medium (MIC); format: cell-based; conditions: Staphylococcus aureus, ATCC6538P, read-out: Minimum inhibiting concentration
Text: as §1

[16] = test system: Streptococcus faecalis subsp. zymogenes ATCC 12958 LRP 61; assay: Bacteriostatic power in solid medium (MIC); format: cell-based; conditions: Enterococcus faecalis, ATCC12958, read-out: Minimum inhibiting concentration
Text: as §1

[17] = test system: Staphylococcus aureus ATCC 6538P LRP 39; assay: Bacteriostatic power in solid medium (MIC); format: cell-based; conditions: Staphylococcus aureus, ATCC6538P, read-out: Minimum inhibiting concentration
Text: as §1

[18] = test system: Streptococcus pneumoniae ATCC 6303 LRP 52; assay: Bacteriostatic power in solid medium (MIC); format: cell-based; conditions: Streptococcus pneumoniae, ATCC6303, read-out: Minimum inhibiting concentration
Text: as §1

[19] = test system: Proteus vulgaris ATCC 6380 LRP 13; assay: Bacteriostatic power in solid medium (MIC); format: cell-based; conditions: Proteus vulgaris, ATCC6380, read-out: Minimum inhibiting concentration
Text: as §1

[20] = test system: Streptococcus pyogenes ATCC 8668 LRP 197; assay: Bacteriostatic power in solid medium (MIC); format: cell-based; conditions: Streptococcus pyogenes, ATCC8668, read-out: Minimum inhibiting concentration
Text: as §1

[21] = test system: Neisseria gonorrhoeae ATCC 19424 LRP 214; assay: Bacteriostatic power in solid medium (MIC); format: cell-based; conditions: Neisseria gonorrhoeae, ATCC19424, read-out: Minimum inhibiting concentration
Text: as §1

[22] = test system: Mycoplasma hominis I ATCC 14027 LRP 211; assay: Bacteriostatic power in solid medium (MIC); format: cell-based; conditions: Metamycoplasma hominis, ATCC14027, read-out: Minimum inhibiting concentration
Text: as §1

[23] = test system: Streptococcus pneumoniae ATCC 6303 LRP 35; assay: Bacteriostatic power in solid medium (MIC); format: cell-based; conditions: Streptococcus pneumoniae, ATCC6303, read-out: Minimum inhibiting concentration
Text: as §1

[24] = Stability in acidic environment at 25° C. (half-life of initial microbiological activity); format: physicochemical; conditions: aqueous solution
Experimental: Stability in acidic environnment at 25° C. of the novel
Note: t 1/2 represents the time for reducing to one half the initial powe
of the antibiotic determined by microbiological method through diffusion
on a plate using the test stock Microccocus luteus (Sarcina lutea) ATCC

[25] = test system: Streptococcus pyogenes ATCC 8668 LRP 34; assay: Bacteriostatic power in liquid medium (MIC); format: cell-based; conditions: Streptococcus pyogenes, ATCC8668, read-out: Minimum inhibiting concentration
Text: as §1

[26] = test system: Corynebacterium diphteriae LRP 24; assay: Bacteriostatic power in liquid medium (MIC); format: cell-based; conditions: Corynebacterium, LRP24, read-out: Minimum inhibiting concentration
Text: as §1

[27] = test system: Staphylococcus aureus ATCC 6538 P LRP 39; assay: Bacteriostatic power in liquid medium (MIC); format: cell-based; conditions: Staphylococcus aureus, ATCC6538, read-out: Minimum inhibiting concentration
Text: as §1

[28] = test system: Streptococcus faecalis subs. zymogenes ATCC 12958 LRP 61; assay: Bacteriostatic power in liquid medium (MIC); format: cell-based; conditions: Enterococcus faecalis, ATCC12958, read-out: Minimum inhibiting concentration
Text: as §1

[29] = test system: Streptococcus pneumoniae ATCC 6303 LRP 35; assay: Bacteriostatic power in liquid medium (MIC); format: cell-based; conditions: Streptococcus pneumoniae, ATCC6303, read-out: Minimum inhibiting concentration
Text: as §1

[30] = test system: Streptococcus pyogenes ATCC 8668 LRP 34; assay: Minimum bactericidal concentration (MBC); format: cell-based
Text: (§2) the bacterial power, expressed as the minimum bactericidal power (MBC) against some Gram positive aerobic stocks (table 5).

[31] = test system: Corynebacterium diphteriae LRP 24; assay: Minimum bactericidal concentration (MBC); format: cell-based
Text: as §2

[32] = test system: Streptococcus faecalis subs. zymogenes LRP 61; assay: Minimum bactericidal concentration (MBC); format: cell-based
Text: as §2

[33] = test system: Staphylococcus aureus ATCC 6538 P LRP 39; assay: Minimum bactericidal concentration (MBC); format: cell-based
Text: as §2

[34] = test system: Streptococcus pneumoniae ATCC 6303 LRP 35; assay: Minimum bactericidal concentration (MBC); format: cell-based
Text: as §2

With CC[C@H]1OC(=O)[C@H](C)[C@@H](O[C@H]2C[C@H](OC)[C@@H](O)[C@H](C)O2)[C@H](C)[C@@H](O[C@@H]2O[C@H](C)C[C@H](N(C)C)[C@H]2O)[C@](C)(O)C[C@](C)(F)C(=O)[C@H](C)[C@@H](O)[C@H]1C [P-80204, 3-O-oleandrosyl-5-O-desosaminyl-(8S)-8-fluoroerythronolide B] the MIC [1] was 1.56 µg/mL (≈ 2.16 µM), the MIC (Salmonella typhy LRP 8) was 25 µg/mL (≈ 34.6 µM) and the MIC (Shigella sonnei LRP 5) was 25 µg/mL (≈ 34.6 µM). The MIC [2] was 12.5 µg/mL (≈ 17.3 µM), the MIC (Bacillus subtilis LRP 25) was 0.195 µg/mL (≈ 0.27 µM) and the MIC (Escherichia coli LRP 50) was 25 µg/mL (≈ 34.6 µM). For the same compound, the MIC [3] was 0.049 µg/mL (≈ 0.0679 µM), the MIC [4] was 0.049 µg/mL (≈ 0.0679 µM) and the MIC [5] was 25 µg/mL (≈ 34.6 µM). It also gave an MIC [6] of 0.049 µg/mL (≈ 0.0679 µM), an MIC [7] of 6.25 µg/mL (≈ 8.66 µM) and an MIC [8] of 25 µg/mL (≈ 34.6 µM). The MIC [9] was 0.39 µg/mL (≈ 0.54 µM), the MIC [10] was 0.049 µg/mL (≈ 0.0679 µM) and the MIC [11] was 3.12 µg/mL (≈ 4.32 µM). For the same compound, the MIC [12] was 25 µg/mL (≈ 34.6 µM), the MIC [13] was 3.12 µg/mL (≈ 4.32 µM) and the MIC [14] was 25 µg/mL (≈ 34.6 µM). It also gave an MIC [15] of 0.39 µg/mL (≈ 0.54 µM), an MIC [16] of 0.39 µg/mL (≈ 0.54 µM) and an MIC [17] of 0.39 µg/mL (≈ 0.54 µM). It also gave an MIC [18] of 0.049 µg/mL (≈ 0.0679 µM), an MIC [19] of 25 µg/mL (≈ 34.6 µM) and an MIC [20] of 0.049 µg/mL (≈ 0.0679 µM). It also gave an MIC [21] of 0.39 µg/mL (≈ 0.54 µM), an MIC [22] of 25 µg/mL (≈ 34.6 µM) and an MIC [23] of 0.049 µg/mL (≈ 0.0679 µM). The half-life ([24]; pH 2) was 25 h, the half-life ([24]; pH 3) was 100 h and the MIC [25] was 0.049 µg/mL (≈ 0.0679 µM). For the same compound, the MIC [26] was 0.024 µg/mL (≈ 0.0332 µM), the MIC [27] was 0.195 µg/mL (≈ 0.27 µM) and the MIC [28] was 0.39 µg/mL (≈ 0.54 µM). It also gave an MIC [29] of 0.024 µg/mL (≈ 0.0332 µM), an MBC/MIC [30] of 8 and an MBC ([30]; Streptococcus pyogenes, ATCC8668, read-out: Minimum bactericidal concentration (MBC)) of 0.39 µg/mL (≈ 0.54 µM). It also gave an MBC/MIC [31] of 16, an MBC ([31]; Corynebacterium, LRP24, read-out: Minimum bactericidal concentration (MBC)) of 0.39 µg/mL (≈ 0.54 µM) and an MBC/MIC [32] of 16. The MBC ([32]; Enterococcus faecalis, read-out: Minimum bactericidal concentration (MBC)) was 6.25 µg/mL (≈ 8.66 µM), the MBC/MIC [33] was 16 and the MBC ([33]; Staphylococcus aureus, ATCC6538, read-out: Minimum bactericidal concentration (MBC)) was 3.12 µg/mL (≈ 4.32 µM). It also gave an MBC/MIC [34] of 2 and an MBC ([34]; Streptococcus pneumoniae, ATCC6303, read-out: Minimum bactericidal concentration (MBC)) of 0.049 µg/mL (≈ 0.0679 µM).
